This assay concerns the target T1, KMO mouse enzyme (Mus musculus, UniProt Q91WN4).
T1 construct: KMO enzyme prepared at Evotec from mouse liver (4-6 weeks old) via mitochondria isolation; from tissue; host or cells: mouse liver (4-6 weeks old), mitochondria isolation, prepared at Evotec
Nature of the assay: KMO enzyme assay: L-Kynurenine hydroxylation to 3-Hydroxy-Kynurenine by LC/MS (protocols substantially similar to Biology Example 3). As to conditions: for inhibition at 10 µM: compound at 10 uM (stated in cell; head says 30 μM). Type of assay: biochemical. The method, then:
A method of monitoring L-Kynurenine (KYN) hydroxylation to form 3-Hydroxy-Kynurenine (30H-KYN) by LC/MS is described. Product is quantified by multiple reaction monitoring (MRM method).
• Compound: Stock concentrations: 10 mM in 100% DMSO • Enzyme: KMO enzyme prepared at Evotec from mouse liver (4-6 weeks old) via mitochondria isolation as described in the literature • Substrate: L-Kynurenine (Sigma: Cat# K3750, stock concentration: 10 mM in 100 mM potassium phosphate buffer, pH 7.4) Assay Conditions: • Buffer: 100 mM potassium phosphate, pH 7.4, 200 μM NADPH, 0.4 U/ml G6P-DH (Glucose 6-phosphate Dehydrogenase), 3 mM G6P (D-Glucose 6-phosphate) • Assay Volume: 40 μl • Plate Format: 384 well plate, transparent (Matrix) • Read-Out: product (30H-KYN) quantification using product specific MRM • Reader: LC/MS/MS Assay Protocol: • prepare serial dilution (factor 3) of compound in 100% DMSO (top concentration=10 mM, 100% DMSO) • [8 points: 10 mM; 3.33 mM; 1.11 mM; 0.37 mM; 0.12 mM; 0.04 mM; 0.0137 mM; 0.0045 mM, 0.0015 mM] • prepare […] concentrated solution of each compound concentration (top concentration 300 μM, 3% DMSO) in assay buffer • [concentrations: 300 μM; 100 μM; 33.3 μM; 11.1 μM; 3.70 μM; 1.23 μM; 0.41 μM; 0.137 μM] • prepare substrate (10 mM) at concentration of 1 mM in assay buffer • assay mix: 4 μl compound/well of each concentration+24 μl assaybuffer/well+8 μl KMO mouse enzyme+4 μl 1 mM substrate (final concentration=100 μM) • [final compound top concentration: 30 μM; 0.3% DMSO] • [final compound bottom concentration: 0.0137 μM; 0.3% DMSO] • positive control: 4 μl […] FCE28833 in assay buffer, 0.5% DMSO [final assay concentration=50 μM]+24 μl assaybuffer/well+8 μl KMO mouse enzyme+4 μl 1 mM substrate[final concentration=100 μM] • negative control: 28 μl assay buffer/well+8 μl KMO mouse enzyme+4 μl 1 mM substrate [final concentration=100 μM] • incubate 40 min at RT • add 40 μl/well 10% trichloro acetic acid in water to stop the assay and precipitate protein • centrifuge plate for 3 min at 4000 rpm • product detection by LC/MS (injection of 20 μl/well, 2 fold overfill of the 10 μl sample loop) Data Analysis:
IC50's are calculated using automated fitting algorithm (A+ Analysis).
Using the assay protocols substantially similar to those of Biology Example 3, the following compounds were tested.

[1] abbreviates: compound at 30 μM, Biology Example 4 table, read-out: Percent Inhibition at 30 μM.
Where [2] appears, read: compound at 30 μM, tables of Methods 1-6, read-out: % Inhibition at 30 μM.

The record followed here is patent US10428054B2, “Kynurenine-3-monooxygenase inhibitors, pharmaceutical compositions, and methods of use thereof” (CHDI Foundation, Inc., priority 2013, dated 2019).

Where two headings read alike, the source gives them in different places.

T1 sequence (Q91WN4 whole entry): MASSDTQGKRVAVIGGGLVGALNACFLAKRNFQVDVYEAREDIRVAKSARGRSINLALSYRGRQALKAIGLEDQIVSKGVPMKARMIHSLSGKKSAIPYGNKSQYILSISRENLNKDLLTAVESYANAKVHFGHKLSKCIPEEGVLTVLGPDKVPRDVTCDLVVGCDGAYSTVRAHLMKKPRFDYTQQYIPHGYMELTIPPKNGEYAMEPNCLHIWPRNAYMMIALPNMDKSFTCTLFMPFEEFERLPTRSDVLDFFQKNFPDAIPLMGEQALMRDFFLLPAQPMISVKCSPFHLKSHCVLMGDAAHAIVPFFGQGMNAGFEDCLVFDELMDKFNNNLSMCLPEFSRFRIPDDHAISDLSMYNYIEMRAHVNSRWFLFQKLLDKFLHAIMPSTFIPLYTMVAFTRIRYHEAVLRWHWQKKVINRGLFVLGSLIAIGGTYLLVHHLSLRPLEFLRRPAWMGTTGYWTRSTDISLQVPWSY

For orientation: inhibition means the drop in the measured response relative to a control, in per cent. In the case of `O=C(O)[C@H]1C[C@@H]1C(=O)c1nccs1` [Example 1, Method 2, (1S,2S)-2-[(1,3-Thiazol-2-yl)carbonyl]cyclopropane-1-carboxylic acid], the inhibition at 10 µM reads like this: (Biology Example 4 table, read-out: Percent Inhibition (at 10 uM)) 28.7%; (table of Method 2, read-out: % Inhibition (at 10 uM)) 28.7%. With `O=C(O)[C@H]1C[C@@H]1C(=O)c1cc(Cl)c2ncccc2c1` [Example 3, Method 3, (1S,2S)-2-(8-Chloroquinoline-6-carbonyl)cyclopropane-1-carboxylic acid], the inhibition at 30 µM is, setting by setting: under setting [1], 100%; under setting [2], 100%. Consider `O=C(O)[C@H]1C[C@@H]1C(=O)c1cc(Cl)c2nccnc2c1` [Example 2, Method 3, (1S,2S)-2-(8-Chloroquinoxaline-6-carbonyl)cyclopropane-1-carboxylic acid], for which the inhibition at 30 µM runs as follows: under setting [1], 101%; under setting [2], 101%. By % Inhibition is commonly meant the percentage by which the read-out fell short of the control. Low readings indicate little suppression, high ones strong suppression. For `Cc1nc2ccc(C(=O)[C@H]3C[C@@H]3C(=O)O)cc2s1` [Example 1, Method 3, (1S,2S)-2-(2-Methyl-1,3-benzothiazole-6-carbonyl)cyclopropane-1-carboxylic acid], the inhibition at 30 µM under setting [1] amounted to 74.5%. Where the note is “compound at 30 μM, tables of Methods 1-6, 30 µM”, the “% Inhibition at 30 μM” value amounted to 98.3%. Take `O=C(O)[C@H]1C[C@@H]1C(=O)c1ccccn1` [Example 3, Method 2, (1S,2S)-2-[(Pyridin-2-yl)carbonyl]cyclopropane-1-carboxylic acid]: the inhibition at 30 µM under setting [1] worked out at 45.6% and the inhibition at 30 µM under setting [2] was 45.6%. For `O=C(O)[C@H]1C[C@@H]1C(=O)c1nc2ccccc2s1` [Example 2, Method 2, (1S,2S)-2-[(1,3-Benzothiazol-2-yl)carbonyl]cyclopropane-1-carboxylic acid], the inhibition at 30 µM by setting is: under setting [1], 91.8%; under setting [2], 91.8%. `O=C(O)[C@H]1C[C@@H]1C(=O)c1ccc(Cl)s1` [Example 1, Method 1, (1S,2S)-2-[(5-Chlorothiophen-2-yl)carbonyl]cyclopropane-1-carboxylic acid]: the inhibition at 30 µM turned out to be 101% under setting [1] and 101% under setting [2]. For `O=C(O)[C@H]1C[C@@H]1C(=O)c1cccs1` [Example 3, Method 1, (1S,2S)-2-[(Thiophen-2-yl)carbonyl]cyclopropane-1-carboxylic acid], the inhibition at 30 µM is, setting by setting: under setting [1], 80.3%; under setting [2], 80.3%. For `Cc1cc2cc(C(=O)[C@H]3C[C@@H]3C(=O)O)cc(Cl)c2o1` [Example 1, Method 6, (1S,2S)-2-(7-chloro-2-methyl-1-benzofuran-5-carbonyl)cyclopropane-1-carboxylic acid], under setting [2], the inhibition at 30 µM came to 102%. In the case of `O=C(O)[C@H]1C[C@@H]1C(=O)c1ccsc1` [Example 2, Method 1, (1S,2S)-2-[(Thiophen-3-yl)carbonyl]cyclopropane-1-carboxylic acid], the inhibition at 30 µM by setting is: under setting [1], 83.2%; under setting [2], 83.2%.

Turning to `O=C(O)[C@H]1C[C@@H]1C(=O)c1cc(Cl)c2occc2c1` [Example 1, Method 4, (1S,2S)-2-(7-Chloro-1-benzofuran-5-carbonyl)cyclopropane-1-carboxylic acid], the inhibition at 30 µM worked out at 100% under setting [1] and 100% under setting [2].
